“And” between values parts separate entries of the source, which are not always exact repeats. Identical values can stand only once. Each block holds one compound with its values, some of them ahead of it.
Key:
Trastuzumab (TMab) [1] = molecular target: T1, Trastuzumab (TMab) (Homo sapiens, UniProt P01857, D239E/L241M); test: Photoconjugation (UV 365 nm) of peptide to Trastuzumab, DAR by LC-MS
T1 construct: Genentech (HERCEPTIN)
Experimental: (§1) Example 2: Antibody conjugation. Conjugation reactions for photocrosslinking peptides were performed open and uncovered in V-bottom, clear, polystyrene 96-well plates (ThermoFisher, product #2605) with a final reaction volume of 50 μL. Unused wells were filled with 150 μL of deionized water. Optimized reactions were performed in 20 mM histidine acetate buffer, pH=5.5, with a final concentration of 48 μM antibody, 480 μM photo-crosslinking peptide, 480 μM 5-hydroxyindole ([…], Sigma-Aldrich), with 11% (v/v) DMSO. […] The DAR was assessed by LC-MS analysis of Fc/2 or heavy chain fragments generated by IdeS or DTT treatments of Trastuzumab, respectively.

Trastuzumab (TMab) [2] = molecular target: T1, Trastuzumab (TMab); test: SPR binding of peptides to immobilized Trastuzumab; conditions: for Kd: TMab, FIG. 3C; for reduced binding affinity (Kd fold decreased) compared to the Fc-III peptide: relative to Fc-III
Experimental: Example 2: SPR binding experiments. Kinetics of peptide binding to Trastuzumab were measured by surface plasmon resonance (SPR) on a Biacore 3000 instrument (GE Healthcare) using a previously established method. (Gong, Y.; et al., Development of the Double Cyclic Peptide Ligand for Antibody Purification and Protein Detection. Bioconjugate chemistry 2016). An amine coupling kit (GE Healthcare) was used to immobilize Trastuzumab to the surface of a CM5 Sensor Chip (GE Healthcare). All injections were double-referenced with real-time reference channel subtraction and buffer blank injections. Data were analyzed using the BiaEvaluation software (version 4.1, GE Healthcare).

rabbit IgG (C) = rabbit IgG (C) (Oryctolagus cuniculus, UniProt P01870); test: Photoconjugation of peptide to rabbit IgG antibody C, DAR
Experimental: as §1

[3] = molecular target: human IgG4 "YTE" mutant (B) (Homo sapiens, UniProt P01861, M132Y/S134T/T136E); test: Photoconjugation of peptide to human IgG4 YTE mutant antibody B, DAR; conditions: Human IgG4 YTE mutant (no Met-252)
Experimental: as §1

mouse IgG1 antibody (D) = mouse IgG1 antibody (D) (Mus musculus, UniProt P01868); test: Photoconjugation of peptide to mouse IgG1 antibody D, DAR; conditions: Mouse IgG1 (no Met-252)
Experimental: as §1

human IgG4 antibody (A) = human IgG4 antibody (A) (Homo sapiens, UniProt P01861); test: Photoconjugation of peptide to human IgG4 antibody A, DAR
Experimental: as §1

Trastuzumab (TMab) [4] = molecular target: T1, Trastuzumab (TMab); test: Photoconjugation (UV 365 nm) of peptide to Trastuzumab, DAR by LC-MS; conditions: PBS, micro-centrifuge tubes on ice, hand-held 365 nm lamp, one hour
Rituximab (human IgG1) = test: Photoconjugation of peptide to Rituximab, DAR
human IgG = conditions: previously reported, Gong et al. 2016; cited from earlier work
[5] = 96-well plate directly under 365 nm lamp, room temperature, 4.5 hours

DAR (Trastuzumab (TMab) [1]; [5]): 1.2
Kd (Trastuzumab (TMab) [2]): ~30 µM
reduced binding affinity (Kd fold decreased) compared to the Fc-III peptide (Trastuzumab (TMab) [2]): greater than 1700 fold
Compound: CC(=O)N[C@@H](CC(=O)O)C(=O)N[C@H]1CSSC[C@@H](C(=O)N[C@H](C(N)=O)[C@@H](C)O)NC(=O)[C@H](Cc2c[nH]c3ccccc23)NC(=O)[C@H](C(C)C)NC(=O)[C@H](CC(C)C)NC(=O)[C@H](CCC(=O)O)NC(=O)CNC(=O)[C@H](Cc2ccc(C(=O)c3ccccc3)cc2)NC(=O)[C@H](Cc2c[nH]cn2)NC(=O)[C@H](Cc2c[nH]c3ccccc23)NC(=O)[C@H](C)NC1=O [BPA4, Ac-DCAWHBGELVWCT-NH2]

DAR reached upon photoconjugation to BPA7 (rabbit IgG (C)): 1.2
DAR reached upon photoconjugation to BPA7 [3]: 0.0
DAR reached upon photoconjugation to BPA7 (mouse IgG1 antibody (D)): 0
DAR reached upon photoconjugation to BPA7 (human IgG4 antibody (A)): 2.0
drug-to-antibody ratio (DAR) (Trastuzumab (TMab) [4]): ~0.04
DAR (Trastuzumab (TMab) [1]; [5]): ~1.7
DAR (photoconjugation efficiency) (Trastuzumab (TMab) [1]; FIG. 3C, peptide series comparison): 1.9
DAR (Trastuzumab (TMab) [1]; Row B: 267 μM BPA7, PBS, on ice (~4° C.), 4 hours): 1.5
DAR (Trastuzumab (TMab) [1]; Row C: 267 μM BPA7, histidine-acetate pH 5.5, on ice, 4 hours): 1.8
DAR (Trastuzumab (TMab) [1]; Row D: 267 μM BPA7, PBS, 267 μM 5-hydroxyindole, on ice, 4 hours): 1.4
DAR (Trastuzumab (TMab) [1]; Row E: 480 μM BPA7 (10-fold over antibody), histidine-acetate pH 5.5, 5-hydroxyindole, 6 hours, on ice): 1.9
DAR reached upon photoconjugation to BPA7 (Trastuzumab (TMab) [1]; Trastuzumab, Human IgG1): 2.0
DAR (Trastuzumab (TMab) [1]; irradiation chamber, Row A: 267 μM BPA7, PBS, room temperature, 4 hours): 1.8
Kd (Trastuzumab (TMab) [2]): ~70 µM and 70 µM
bound to TMab less tightly than BPA9 (Trastuzumab (TMab) [2]; relative to BPA9): ~150 fold
reduced binding affinity (Kd fold decreased) compared to the Fc-III peptide (Trastuzumab (TMab) [2]): greater than 4000 fold
Compound: CC(=O)N[C@@H](CC(=O)O)C(=O)N[C@H]1CSSC[C@@H](C(=O)N[C@H](C(N)=O)[C@@H](C)O)NC(=O)[C@H](Cc2c[nH]c3ccccc23)NC(=O)[C@H](Cc2ccc(C(=O)c3ccccc3)cc2)NC(=O)[C@H](CC(C)C)NC(=O)[C@H](CCC(=O)O)NC(=O)CNC(=O)[C@H](CC(C)C)NC(=O)[C@H](Cc2c[nH]cn2)NC(=O)[C@H](Cc2c[nH]c3ccccc23)NC(=O)[C@H](C)NC1=O [BPA7, Ac-DCAWHLGELBWCT-NH2]
DAR reached upon photoconjugation to BPA7 (Rituximab (human IgG1)): 2.0

Compound: CC(=O)N[C@@H](CC(=O)O)C(=O)N[C@H]1CSSC[C@@H](C(=O)N[C@H](C(N)=O)[C@@H](C)O)NC(=O)[C@H](Cc2c[nH]c3ccccc23)NC(=O)[C@H](C(C)C)NC(=O)[C@H](CC(C)C)NC(=O)[C@H](CCC(=O)O)NC(=O)CNC(=O)[C@H](CC(C)C)NC(=O)[C@H](Cc2c[nH]cn2)NC(=O)[C@H](Cc2c[nH]c3ccccc23)NC(=O)[C@H](C)NC1=O [Fc-III]
Kd (human IgG): 0.07 µM

DAR (Trastuzumab (TMab) [1]; [5]): 0.2
Compound: Ac-DCAWBLGELVWCT-NH2 (DCAWXLGELVWCT; Ac, NH2; BPA non-natural residue; /note=“N-term Ac”; MOD_RES (5)..(5) p-benzoyl-L-phenylalanine; /note=“C-term NH2”) [BPA3, B = BPA]

Reference: patent publication US20220047711A1, “PHOTOCROSSLINKING PEPTIDES FOR SITE SPECIFIC CONJUGATION TO FC-CONTAINING PROTEINS” (Genentech, Inc., priority 2018, published 2022)
